Source: patent publication US11708369B2, “Heteroaromatic compounds having activity against RSV” (Janssen Sciences Ireland Unlimited Company, priority 2018, dated 2023)

Assays:
in vitro = conditions: human
Procedure: The wells contain 0.05% DMSO per volume. Cells were incubated at 37° C. in a 5% CO2 atmosphere. […] In parallel, compounds were incubated for three days in a set of white 384-well microtiter plates (Corning) and the cytotoxicity of compounds in HeLa cells was determined by measuring the ATP content of the cells using the ATPlite kit (Perkin Elmer, Zaventem, Belgium) according to the manufacturer's instructions. The CC50 was defined as the 50% concentration for cytotoxicity.

rgRSV224 virus = assay: Antiviral activity: rgRSV224 (GFP) replication in HeLa cells; conditions: human respiratory syncytial virus, 72 h, read-out: RSV HELA EC50
Procedure: Black 384-well clear-bottom microtiter plates (Corning, Amsterdam, The Netherlands) were filled via acoustic drop ejection using the echo liquid handler (Labcyte, Sunnyvale, Calif.). 200 nL of compound stock solutions (100% DMSO) were transferred to the assay plates. 9 serial 4-fold dilutions of compound were made, creating per quadrant the same compound concentration. The assay was initiated by adding 10 μL of culture medium to each well (RPMI medium without phenol red, 10% FBS-heat inactivated, 0.04% gentamycin (50 mg/mL). All addition steps are done by using a multidrop dispenser (Thermo Scientific, Erembodegem, Belgium). Next, rgRSV224 virus (MOI=1) diluted in culture medium was added to the plates. rgRSV224 virus is an engineered virus that includes an additional GFP gene (Hallak L K, Spillmann D, Collins P L, Peeples M E. Glycosaminoglycan sulfation requirements for respiratory syncytial virus infection; Journal of virology (2000), 74(22), 10508-13) and was in-licensed from the NIH (Bethesda, Md., USA). Finally, 20 μL of a HeLa cell suspension (3,000 cells/well) were plated. Medium, virus- and mock-infected controls were included in each test. The wells contain 0.05% DMSO per volume. Cells were incubated at 37° C. in a 5% CO2 atmosphere. Three days post-virus exposure, viral replication was quantified by measuring GFP expression in the cells by an in house developed MSM laser microscope (Tibotec, Beerse, Belgium). The EC50 was defined as the 50% inhibitory concentration for GFP expression. In parallel, compounds were incubated for three days in a set of white 384-well microtiter plates (Corning) and the cytotoxicity of compounds in HeLa cells was determined by measuring the ATP content of the cells using the ATPlite kit (Perkin Elmer, Zaventem, Belgium) according to the manufacturer's instructions. The CC50 was defined as the 50% concentration for cytotoxicity.

SMILES: C[C@@H]1c2ccccc2CCN1C(=O)c1cc(C2CC2)n2cc(-c3ccc(N4CC[C@H](C(=O)O)C4)cc3F)nc2n1 [Compound 27, (3S)-1-(4-{5-Cyclopropyl-7-[(1R)-1-methyl-1,2,3,4-tetrahydroisoquinoline-2-carbonyl]imidazo[1,2-a]pyrimidin-2-yl}-3-fluorophenyl)pyrrolidine-3-carboxylic Acid]
- CC50 at 3 days (in vitro): 40.4 µM
- EC50 (rgRSV224 virus): 0.159 µM

SMILES: C[C@@H]1c2ccccc2CCN1C(=O)c1cc(C2CC2)n2c(F)c(-c3ccc([C@@H]4C[C@H]4C(=O)O)cc3F)nc2n1 (mixture of isomers) [Compound 25, trans-2-(4-{5-cyclopropyl-3-fluoro-7-[(1R)-1-methyl-1,2,3,4-tetrahydroisoquinoline-2-carbonyl]imidazo[1,2-a]pyrimidin-2-yl}-3-fluorophenyl)cyclopropane-1-carboxylic Acid]
- CC50 at 3 days (in vitro): 22.3 µM
- EC50 (rgRSV224 virus): 0.112 µM

SMILES: CCc1cc(C(=O)N2CCc3ccccc3[C@H]2C)cc2cc(-c3ccc([C@H]4C[C@@H]4C(N)=O)cc3F)cn12 [Compound 2]
- CC50 at 3 days (in vitro): 52.7 µM
- EC50 (rgRSV224 virus): 0.344 µM

SMILES: C[C@@H]1c2ccccc2CCN1C(=O)c1cc(C2CC2)n2nc(-c3ccc(C4C[C@H]4C(=O)O)cc3F)cc2c1F (relative stereo) [Compound 6, trans-2-(4-{7-Cyclopropyl-4-fluoro-5-[(1R)-1-methyl-1,2,3,4-tetrahydroisoquinoline-2-carbonyl]pyrazolo[1,5-a]pyridin-2-yl}-3-fluorophenyl)cyclopropane-1-carboxylic Acid]
- CC50 at 3 days (in vitro): 50.2 µM
- EC50 (rgRSV224 virus): 0.09 µM

SMILES: CCc1cc(C(=O)N2CCc3ccccc3[C@H]2C)cc2cc(-c3ccc(N4CC[C@H](C(=O)O)C4)cc3F)cn12 [Compound 3, (3S)-1-(4-{5-Ethyl-7-[(1R)-1-methyl-1,2,3,4-tetrahydroisoquinoline-2-carbonyl]indolizin-2-yl}-3-fluorophenyl)pyrrolidine-3-carboxylic Acid]
- CC50 at 3 days (in vitro): 44 µM
- EC50 (rgRSV224 virus): 0.218 µM

SMILES: CCc1cc(C(=O)N2CCc3ccccc3[C@H]2C)c(C)c2cc(-c3ccc(N4CC[C@H](C(=O)O)C4)cc3F)nn12 [Compound 9, (3S)-1-(4-{7-Ethyl-4-methyl-5-[(1R)-1-methyl-1,2,3,4-tetrahydroisoquinoline-2-carbonyl]pyrazolo[1,5-a]pyridin-2-yl}-3-fluorophenyl)pyrrolidine-3-carboxylic Acid]
- CC50 at 3 days (in vitro): 50.6 µM
- EC50 (rgRSV224 virus): 0.596 µM

SMILES: C[C@@H]1c2ccccc2CCN1C(=O)c1cc2cc(-c3ccc(N4CC[C@H](C(=O)O)C4)cc3F)nn2c(C2CC2)n1 [Compound 21, (3S)-1-(4-{7-Cyclopropyl-5-[(1R)-1-methyl-1,2,3,4-tetrahydroisoquinoline-2-carbonyl]pyrazolo[1,5-c]pyrimidin-2-yl}-3-fluorophenyl)pyrrolidine-3-carboxylic Acid]
- CC50 at 3 days (in vitro): 29.8 µM
- EC50 (rgRSV224 virus): 0.564 µM

SMILES: C[C@@H]1c2ccccc2CCN1C(=O)c1cc(C2CC2)n2nc(-c3ccc(C4C[C@H]4C(=O)O)cc3F)nc2c1 (relative stereo) [Compound 16, trans-2-(4-{5-Cyclopropyl-7-[(1R)-1-methyl-1,2,3,4-tetrahydroisoquinoline-2-carbonyl]-[1,2,4]triazolo[1,5-a]pyridin-2-yl}-3-fluorophenyl)cyclopropane-1-carboxylic Acid]
- CC50 at 3 days (in vitro): 79.4 µM
- EC50 (rgRSV224 virus): 0.182 µM

SMILES: C[C@@H]1c2ccccc2CCN1C(=O)c1cc(C2CC2)n2nc(-c3ccc(C4C[C@@H]4C(=O)O)cc3F)nc2c1 (relative stereo) [Compound 17, cis-2-(4-{5-Cyclopropyl-7-[(1R)-1-methyl-1,2,3,4-tetrahydroisoquinoline-2-carbonyl]-[1,2,4]triazolo[1,5-a]pyridin-2-yl}-3-fluorophenyl)cyclopropane-1-carboxylic Acid]
- CC50 at 3 days (in vitro): > 100 µM
- EC50 (rgRSV224 virus): 2.01 µM

SMILES: C[C@@H]1c2ccccc2CCN1C(=O)c1cc(C2CC2)n2nc(-c3ccc(N4CC[C@H](C(N)=O)C4)cc3F)cc2c1 [Compound 8, (3S)-1-(4-{7-Cyclopropyl-5-[(1R)-1-methyl-1,2,3,4-tetrahydroisoquinoline-2-carbonyl]pyrazolo[1,5-a]pyridin-2-yl}-3-fluorophenyl)pyrrolidine-3-carboxamide]
- CC50 at 3 days (in vitro): 53.4 µM
- EC50 (rgRSV224 virus): 0.054 µM

SMILES: C[C@@H]1c2ccccc2CCN1C(=O)c1cc(C2CC2)n2cc(-c3ccc(N4CC[C@H](C(N)=O)C4)cc3F)nc2n1 [Compound 28, (3S)-1-(4-{5-Cyclopropyl-7-[(1R)-1-methyl-1,2,3,4-tetrahydroisoquinoline-2-carbonyl]imidazo[1,2-a]pyrimidin-2-yl}-3-fluorophenyl)pyrrolidine-3-carboxamide]
- CC50 at 3 days (in vitro): 22.3 µM
- EC50 (rgRSV224 virus): 0.112 µM

SMILES: C[C@@H]1c2ccccc2CCN1C(=O)c1cc2cc(-c3ccc(N4CC[C@H](C(N)=O)C4)cc3F)nn2c(C2CC2)n1 [Compound 22, (3S)-1-(4-{7-Cyclopropyl-5-[(1R)-1-methyl-1,2,3,4-tetrahydroisoquinoline-2-carbonyl]pyrazolo[1,5-c]pyrimidin-2-yl}-3-fluorophenyl)pyrrolidine-3-carboxamide]
- CC50 at 3 days (in vitro): > 100 µM
- EC50 (rgRSV224 virus): 0.87 µM

SMILES: CCc1cc(C(=O)N2CCc3ccccc3[C@H]2C)cc2cc(-c3ccc(C4C[C@H]4C(=O)O)cc3F)nn12 (relative stereo) [Compound 4, Trans-2-(4-{7-ethyl-5-[(1R)-1-methyl-1,2,3,4-tetrahydroisoquinoline-2-carbonyl]pyrazolo[1,5-a]pyridin-2-yl}-3-fluorophenyl)cyclopropane-1-carboxylic Acid]
- CC50 at 3 days (in vitro): 57.6 µM
- EC50 (rgRSV224 virus): 0.219 µM

SMILES: C[C@@H]1c2ccccc2CCN1C(=O)c1cc(C2CC2)n2nc(-c3ccc(N4CC[C@H](C(N)=O)C4)cc3F)nc2c1 [Compound 20, (3S)-1-(4-{5-Cyclopropyl-7-[(1R)-1-methyl-1,2,3,4-tetrahydroisoquinoline-2-carbonyl]-[1,2,4]triazolo[1,5-a]pyridin-2-yl}-3-fluorophenyl)pyrrolidine-3-carboxamide]
- CC50 at 3 days (in vitro): 45.6 µM
- EC50 (rgRSV224 virus): 0.102 µM

SMILES: C[C@@H]1c2ccccc2CCN1C(=O)c1cc(C2CC2)n2nc(-c3ccc(N4CC[C@H](C(=O)O)C4)cc3F)nc2c1 [Compound 19, (3S)-1-(4-{5-Cyclopropyl-7-[(1R)-1-methyl-1,2,3,4-tetrahydroisoquinoline-2-carbonyl]-[1,2,4]triazolo[1,5-a]pyridin-2-yl}-3-fluorophenyl)pyrrolidine-3-carboxylic Acid]
- CC50 at 3 days (in vitro): 60.9 µM
- EC50 (rgRSV224 virus): 0.1 µM

SMILES: C[C@@H]1c2ccccc2CCN1C(=O)c1cc(C2CC2)n2nc(-c3ccc(N4CC[C@H](C(N)=O)C4)cc3F)cc2c1F [Compound 10, (3S)-1-(4-{7-Cyclopropyl-4-fluoro-5-[(1R)-1-methyl-1,2,3,4-tetrahydroisoquinoline-2-carbonyl]pyrazolo[1,5-a]pyridin-2-yl}-3-fluorophenyl)pyrrolidine-3-carboxamide]
- CC50 at 3 days (in vitro): 40.4 µM
- EC50 (rgRSV224 virus): 0.062 µM

SMILES: C[C@@H]1c2ccccc2CCN1C(=O)c1cc(C2CC2)n2nc(-c3ccc(N4CC[C@H](C(=O)O)C4)cc3F)cc2c1 [Compound 7, (3S)-1-(4-{7-Cyclopropyl-5-[(1R)-1-methyl-1,2,3,4-tetrahydroisoquinoline-2-carbonyl]pyrazolo[1,5-a]pyridin-2-yl}-3-fluorophenyl)pyrrolidine-3-carboxylic Acid]
- CC50 at 3 days (in vitro): 48 µM
- EC50 (rgRSV224 virus): 0.064 µM

SMILES: C[C@@H]1c2ccccc2CCN1C(=O)c1cc(C2CC2)n2nc(-c3ccc(C4C[C@H]4C(N)=O)cc3F)nc2c1 (relative stereo) [Compound 18, trans-2-(4-{5-Cyclopropyl-7-[(1R)-1-methyl-1,2,3,4-tetrahydroisoquinoline-2-carbonyl]-[1,2,4]triazolo[1,5-a]pyridin-2-yl}-3-fluorophenyl)cyclopropane-1-carboxamide]
- CC50 at 3 days (in vitro): 47.9 µM
- EC50 (rgRSV224 virus): 0.178 µM

SMILES: C[C@@H]1c2ccccc2CCN1C(=O)c1cc(C2CC2)n2c(F)c(-c3ccc([C@H]4C[C@H]4C(=O)O)cc3F)nc2n1 (mixture of isomers) [Compound 26, cis-2-(4-{5-cyclopropyl-3-fluoro-7-[(1R)-1-methyl-1,2,3,4-tetrahydroisoquinoline-2-carbonyl]imidazo[1,2-a]pyrimidin-2-yl}-3-fluorophenyl)cyclopropane-1-carboxylic Acid]
- CC50 at 3 days (in vitro): 77.2 µM
- EC50 (rgRSV224 virus): 3.42 µM

SMILES: CCc1cc(C(=O)N2CCc3ccccc3[C@H]2C)cc2cc(-c3ccc([C@H]4C[C@@H]4C(=O)O)cc3F)cn12 [Compound 1, (1S,2S)-2-(4-{5-Ethyl-7-[(1R)-1-methyl-1,2,3,4-tetrahydroisoquinoline-2-carbonyl]indolizin-2-yl}-3-fluorophenyl)cyclopropane-1-carboxylic Acid]
- CC50 at 3 days (in vitro): 45.1 µM
- EC50 (rgRSV224 virus): 0.195 µM

SMILES: CCc1cc(C(=O)N2CCc3ccccc3[C@H]2C)c(OC)c2cc(-c3ccc(C4C[C@H]4C(=O)O)cc3F)nn12 (relative stereo) [Compound 5, trans-2-(4-{7-Ethyl-4-methoxy-5-[(1R)-1-methyl-1,2,3,4-tetrahydroisoquinoline-2-carbonyl]pyrazolo[1,5-a]pyridin-2-yl}-3-fluorophenyl)cyclopropane-1-carboxylic Acid]
- CC50 at 3 days (in vitro): 47.2 µM
- EC50 (rgRSV224 virus): 1.7 µM

SMILES: CNC(=O)[C@H]1CCN(c2ccc(-c3cc4cc(C(=O)N5CCc6ccccc6[C@H]5C)nc(C5CC5)n4n3)c(F)c2)C1 [Compound 23, (3S)-1-(4-{7-Cyclopropyl-5-[(1R)-1-methyl-1,2,3,4-tetrahydroisoquinoline-2-carbonyl]pyrazolo[1,5-c]pyrimidin-2-yl}-3-fluorophenyl)-N-methylpyrrolidine-3-carboxamide]
- CC50 at 3 days (in vitro): > 100 µM
- EC50 (rgRSV224 virus): 0.882 µM

SMILES: C[C@@H]1c2ccccc2CCN1C(=O)c1cc(C2CC2)n2cc(-c3ccc(C4C[C@H]4C(=O)O)cc3F)nc2n1 (relative stereo) [Compound 24, trans-2-(4-{5-Cyclopropyl-7-[(1R)-1-methyl-1,2,3,4-tetrahydroisoquinoline-2-carbonyl]imidazo[1,2-a]pyrimidin-2-yl}-3-fluorophenyl)cyclopropane-1-carboxylic Acid]
- CC50 at 3 days (in vitro): 69.7 µM
- EC50 (rgRSV224 virus): 0.105 µM
